Reference: US8067424B2, “Selective inhibitors for cyclin-dependent kinases” (Emory University, priority 2007, dated 2011)
Like-named read-outs stand apart in the source and are kept apart here.

What was measured:
Assay type in all cases: biochemical
[1] = test system: AMPK; assay: Kinase screen: AMPK assay; conditions: for mean activity remaining (as a percentage of the original activity), AMPK: 10 micromolar compound
Procedure: (§1) Generally, the same procedure was used for all assays. Since the total assay volume was 25.5 microliters, 0.5 microliters of inhibitors at 51× assay concentration were added to the plates before any other addition.
(§2) The basic procedure was to add 0.5 microliters inhibitor/control in DMSO to plate. Fifteen microliters of enzyme/substrate/buffer mix were added and incubated for 5 min. Ten microliters MgATP at the relevant concentration were added and incubated for 30 min. The assay was stopped by adding 5 microliters of 3% orthophosphoric acid. The assay was transferred to a p81 filter plate and read in a scintillation counter of 30 sec/well. Note that this assay procedure was not followed for MKK1, which instead involved a two-step assay, and PKC alpha, which required the addition of lipid vesicles.
AMPK assay: AMPK (5-20 mU diluted in 50 mM Hepes pH 7.5, 1 mM DTT, 0.02% Brij35) was assayed against SAMS substrate peptide ([…]) (SEQ ID NO: 11) in a final volume of 25.5 μl containing 50 mM Hepes pH 7.5, 1 mM DTT, 0.02% Brij35, 0.4 mM SAMS peptide, 0.196 mM AMP, 10 mM magnesium acetate and 0.05 mM [33P-g-ATP] (50-1000 cpm/pmole) and incubated for 30 min at room temperature. Assays were stopped by addition of 5 μl of 0.5 M (3%) orthophosphoric acid and then harvested onto P81 Unifilter plates with a wash buffer of 50 mM orthophosphoric acid.

[2] = target: MNK2 (Homo sapiens, UniProt Q9HBH9); assay: Kinase screen: MNK2 alpha assay
Procedure: as §1, §2
MNK2 alpha assay: 5-20 mU of MNK2 (diluted in 50 mM Tris (pH 7.5), 0.1 mM EGTA, 1 mg/ml BSA, 0.1%, b-Mercaptoethanol) was assayed against substrate peptide (eIF4E) in a final volume of 25.5 μl containing 50 mM Tris (pH 7.5), 0.1 mM EGTA, 0.1%, b-Mercaptoethanol, 0.5 mg/ml substrate peptide, 10 mM magnesium acetate and 0.05 mM [33P-g-ATP](500-1000 cpm/pmole) and incubated for 30 mins at room temperature. Assays were stopped by addition of 5 μl of 0.5M (3%) orthophosphoric acid. Assays were harvested onto P81 Unifilter plates using a wash buffer of 50 mM orthophosphoric acid.

[3] = target: ROCK 2 (Homo sapiens, UniProt O75116); assay: Kinase screen: ROCK-II (ROKa) assay
Procedure: as §1, §2
ROCK-II (ROKa) assay: ROCK-II (ROKa) (5-20 mU diluted in 50 mM Tris pH 7.5, 0.1 mM EGTA, 0.1% b-mercaptoethanol, 1 mg/ml BSA) was assayed against Long S6 substrate peptide ([…]) (SEQ ID NO: 10) in a final volume of 25.5 μl containing 50 mM Tris pH 7.5, 0.1 mM EGTA, 30 μM Long S6 substrate peptide, 10 mM magnesium acetate and 0.02 mM [33P-g-ATP] (50-1000 cpm/pmole) and incubated for 30 min at room temperature. Assays were stopped by addition of 5 μl of 0.5 M (3%) orthophosphoric acid and then harvested onto P81 Unifilter plates with a wash buffer of 50 mM orthophosphoric acid.

[4] = target: T1, DYRK3 (Homo sapiens, UniProt O43781); assay: Kinase screen: DYRK3 assay
T1 sequence (O43781 1-588): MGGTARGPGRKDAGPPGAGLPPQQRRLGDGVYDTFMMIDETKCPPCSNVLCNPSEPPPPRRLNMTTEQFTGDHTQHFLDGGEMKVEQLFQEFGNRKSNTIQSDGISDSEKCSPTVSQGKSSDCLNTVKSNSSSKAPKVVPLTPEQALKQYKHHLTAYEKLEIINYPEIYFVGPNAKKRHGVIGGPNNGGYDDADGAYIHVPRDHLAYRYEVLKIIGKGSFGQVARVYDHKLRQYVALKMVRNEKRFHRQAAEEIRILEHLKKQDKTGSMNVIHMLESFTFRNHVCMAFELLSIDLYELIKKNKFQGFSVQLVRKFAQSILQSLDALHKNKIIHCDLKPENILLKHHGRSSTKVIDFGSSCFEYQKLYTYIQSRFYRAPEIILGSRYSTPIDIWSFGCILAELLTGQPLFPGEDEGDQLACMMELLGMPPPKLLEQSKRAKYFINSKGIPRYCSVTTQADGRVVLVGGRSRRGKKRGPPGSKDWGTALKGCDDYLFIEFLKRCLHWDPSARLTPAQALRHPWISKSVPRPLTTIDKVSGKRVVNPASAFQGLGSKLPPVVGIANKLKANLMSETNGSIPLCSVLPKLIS
Procedure: as §1, §2
DYRK3 assay: DYRK3 (5-20 mU of diluted in 50 mM Tris pH7.5, 0.1 mM EGTA) was assayed against Woodtide ([…]) (SEQ ID NO: 29) in a final volume of 25.5 μl containing 50 mM Tris pH 7.5, 0.1 mM EGTA, 350 μM substrate peptide, 10 mM Magnesium acetate and 0.005 mM [33P-g-ATP] (50-1000 cpm/pmole) and incubated for 30 min at room temperature. Assays were stopped by addition of 5 μl of 0.5 M (3%) orthophosphoric acid and then harvested onto P81 Unifilter plates with a wash buffer of 50 mM orthophosphoric acid.

[5] = 10 micromolar compound, read-out: mean activity remaining (as a percentage of the original activity), MNK2
[6] = 10 micromolar compound, read-out: mean activity remaining (as a percentage of the original activity), ROCK 2
[7] = 10 micromolar compound, read-out: mean activity remaining (as a percentage of the original activity), DYRK 3

Chain of MNK2 (Q9HBH9 whole entry, species assumed): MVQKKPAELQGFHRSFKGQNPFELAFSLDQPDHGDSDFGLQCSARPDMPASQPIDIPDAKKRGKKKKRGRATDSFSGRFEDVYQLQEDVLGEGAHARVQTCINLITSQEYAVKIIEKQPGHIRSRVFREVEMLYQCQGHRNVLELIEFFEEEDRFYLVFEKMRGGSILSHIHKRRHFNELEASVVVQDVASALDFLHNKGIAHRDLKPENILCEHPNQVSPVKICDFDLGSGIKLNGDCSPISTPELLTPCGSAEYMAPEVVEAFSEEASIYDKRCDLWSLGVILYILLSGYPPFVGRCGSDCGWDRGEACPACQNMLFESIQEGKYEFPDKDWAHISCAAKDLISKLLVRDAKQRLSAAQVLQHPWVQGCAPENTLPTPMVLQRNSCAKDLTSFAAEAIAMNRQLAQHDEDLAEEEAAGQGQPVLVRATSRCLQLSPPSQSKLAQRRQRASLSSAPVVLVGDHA
Chain of ROCK 2 (O75116 whole entry, species assumed): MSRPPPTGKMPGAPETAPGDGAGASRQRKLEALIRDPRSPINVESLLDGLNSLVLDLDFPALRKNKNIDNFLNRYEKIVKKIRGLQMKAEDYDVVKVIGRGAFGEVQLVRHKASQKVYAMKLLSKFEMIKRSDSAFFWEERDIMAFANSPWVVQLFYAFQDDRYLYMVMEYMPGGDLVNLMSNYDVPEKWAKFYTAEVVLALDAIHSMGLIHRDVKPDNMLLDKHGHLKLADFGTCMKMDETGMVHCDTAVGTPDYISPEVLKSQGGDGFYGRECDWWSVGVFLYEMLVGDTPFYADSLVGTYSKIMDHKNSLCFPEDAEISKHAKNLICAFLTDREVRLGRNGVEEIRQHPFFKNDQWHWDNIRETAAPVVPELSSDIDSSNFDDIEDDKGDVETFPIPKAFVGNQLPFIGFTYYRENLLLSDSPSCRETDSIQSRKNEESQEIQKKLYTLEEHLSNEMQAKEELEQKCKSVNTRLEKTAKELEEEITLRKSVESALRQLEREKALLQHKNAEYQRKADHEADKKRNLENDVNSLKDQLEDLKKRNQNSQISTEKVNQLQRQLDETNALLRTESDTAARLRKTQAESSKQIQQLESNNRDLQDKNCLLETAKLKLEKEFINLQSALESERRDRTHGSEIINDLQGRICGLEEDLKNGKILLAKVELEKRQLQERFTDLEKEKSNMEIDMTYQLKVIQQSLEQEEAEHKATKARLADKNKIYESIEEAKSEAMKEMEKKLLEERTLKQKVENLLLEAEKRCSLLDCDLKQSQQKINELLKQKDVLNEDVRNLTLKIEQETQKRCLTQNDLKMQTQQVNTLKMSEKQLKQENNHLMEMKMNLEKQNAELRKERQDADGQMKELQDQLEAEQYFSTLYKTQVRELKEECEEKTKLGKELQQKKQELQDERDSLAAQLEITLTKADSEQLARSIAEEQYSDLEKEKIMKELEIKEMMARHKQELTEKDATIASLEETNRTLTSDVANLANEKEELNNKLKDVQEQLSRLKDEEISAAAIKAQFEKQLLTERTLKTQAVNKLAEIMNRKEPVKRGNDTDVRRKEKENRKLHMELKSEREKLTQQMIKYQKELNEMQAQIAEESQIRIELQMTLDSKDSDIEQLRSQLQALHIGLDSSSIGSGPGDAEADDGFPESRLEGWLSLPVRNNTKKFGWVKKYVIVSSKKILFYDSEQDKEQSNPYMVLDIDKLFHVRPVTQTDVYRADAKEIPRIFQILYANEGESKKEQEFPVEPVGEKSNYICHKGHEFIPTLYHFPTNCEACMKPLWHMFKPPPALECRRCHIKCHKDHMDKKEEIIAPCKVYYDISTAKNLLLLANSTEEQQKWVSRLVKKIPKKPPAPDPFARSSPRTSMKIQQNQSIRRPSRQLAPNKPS

| SMILES | mean activity remaining (as a percentage of the original activity), AMPK [1] [%] | mean activity remaining (as a percentage of the original activity), MNK2 ([2]; 10 micromolar compound) [%] | mean activity remaining (as a percentage of the original activity), ROCK 2 ([3]; 10 micromolar compound) [%] | mean activity remaining (as a percentage of the original activity), DYRK 3 ([4]; 10 micromolar compound) [%] | Mean Remaining Enzyme Activity (%) ([1]; AMPK, 10 μM) | remaining activity at 10 µM ([2]; MNK2, 10 μM, read-out: Mean Remaining Enzyme Activity (%)) [%] | remaining activity at 10 µM ([3]; ROCK 2, 10 μM, read-out: Mean Remaining Enzyme Activity (%)) [%] | remaining activity at 10 µM ([4]; DYRK3, 10 μM, read-out: Mean Remaining Enzyme Activity (%)) [%] | remaining activity at 10 µM [2, 5] [%] | remaining activity at 10 µM [3, 6] [%] | remaining activity at 10 µM [4, 7] [%] |
| --- | --- | --- | --- | --- | --- | --- | --- | --- | --- | --- | --- |
| CC(C)c1cnn2c(NCc3ccccc3F)cc(NCCCCCN)nc12 [ICEC-0232] | 75 | 88 | 86 | 60 |  |  |  |  |  |  |  |
| CC(C)c1cnn2c(NCc3ccccc3)cc(NCCCCCCCN)nc12 [BS-181] |  |  |  |  | 122 | 105 | 76 | 87 |  |  |  |
| CC[C@H](CO)Nc1cc(NCc2ccccc2)n2ncc(C(C)C)c2n1 [ICEC0067] | 84 |  |  |  |  |  |  |  | 84 | 85 | 90 |
| C=C[C@H](CO)Nc1cc(NCc2ccccc2)n2ncc(C(C)C)c2n1 [ICEC0065] | 85 |  |  |  |  |  |  |  | 83 | 95 | 86 |
| CC(C)c1cnn2c(NCc3ccccc3)cc(N[C@@H](CO)[C@H](O)CO)nc12 [ICEC0318, (3S)-3-(7-(Benzylamino)-3-isopropylpyrazolo[1,5-a]pyrimidin-5-ylamino)butane-1,2,4-triol] | 88 |  |  |  |  |  |  |  | 136 | 102 | 88 |
